The values that follow come from ChEMBL document CHEMBL1201862, “PubChem BioAssay data set” (2004).

What all share (assay): inhibition of tumour cell growth, NCI panel, 48 h
For assay [1], the system named is HCT-116.
For assay [2], the system named is KM12.
For assay [3], the system named is COLO 205.
Assay [4] relates to CAKI-1.
The test system of assay [5] is HOP-92.
Assay [6] deals with MDA-N.
The subject of assay [7] is UACC-62.
Assay [8] deals with U-251.
Assay [9] deals with RPMI-8226.
Assay [10] concerns SF-268.
For assay [11], the system named is OVCAR-8.
Assay [12] concerns HT-29.
The test system of assay [13] is HOP-62.
Assay [14] has as its system K562.
The test system of assay [15] is SF-295.
Assay [16] relates to DU-145.
In assay [17] the test system is Malme-3M.
Assay [18] has as its system PC-3.
The test system of assay [19] is A498.

Structures are written as SMILES.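 Interpolation was linear, between the two tested concentrations surrounding the appropriate level; five concentrations were tested over 48 hours in 96-well plates. The concentration for 50% growth inhibition is given as GI50.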 Calls of active or inactive are those of the source. No stated cut-off is given here; in the data, active = GI50 up to about 1.1 µM and inactive = higher.

For `CCn1cc(C(=O)O)c(=O)c2cc(F)c(N3CCN(CN4C(=O)/C(=N\c5ncc(Cc6cc(OC)c(OC)c(OC)c6)c(N)n5)c5cc(Cl)ccc54)CC3)cc21`, the GI50 in assay [1] was 74.3 µM (inactive); in assay [2] it was 50.2 µM (inactive); in [3], > 100 µM (inactive); in assay [4] it was > 100 µM (inactive); in assay [5], > 100 µM (inactive); in assay [6], 45.5 µM (inactive). Also, the GI50 in assay [7] was > 100 µM (inactive); in assay [8], 61.4 µM (inactive); in assay [9] it was 0.0399 µM (active); in assay [10], > 100 µM (inactive); in assay [11] it was > 100 µM (inactive); in [12], > 100 µM (inactive). Also, the GI50 was > 100 µM (inactive) in assay [13]; 15.9 µM (inactive) in [14]; > 100 µM (inactive) in assay [15]; > 100 µM (inactive) in [16]; > 100 µM (inactive) in [17]; > 100 µM (inactive) in assay [18]. The GI50 in assay [19] was > 100 µM (inactive).

As to `COC1=CC2(C=CC1=O)CCNC1=C2C(=O)c2nc[nH]c2C1=O` (stereo not drawn), the GI50 in assay [1], in [2], in assay [3], in assay [4], in assay [5] and in assay [6] was > 100 µM (inactive) throughout. Further, the GI50 in assay [7], in assay [8], in assay [9], in [10], in assay [11] and in assay [12] was > 100 µM (inactive) throughout. Also, the GI50 in assay [13], in [14], in assay [15], in assay [16], in assay [17] and in assay [18] was > 100 µM (inactive) throughout. Further, the GI50 in [19] is > 100 µM (inactive).

`CN(C)c1ncnc2c1ncn2CCn1cnc2c(N(C)C)ncnc21`: the GI50 in assay [1], in [2], in assay [3], in [4], in assay [5] and in assay [6] was > 100 µM (inactive) each time. Further, the GI50 in assay [7], in assay [8], in [9], in assay [10], in assay [11] and in assay [12] was > 100 µM (inactive) throughout. Besides, the GI50 in assay [13], in assay [15], in [16], in assay [17], in assay [18] and in assay [19] was > 100 µM (inactive) in each case.

Consider `O=c1[nH]n(Cc2ccccn2)c2ccc([N+](=O)[O-])cc12`, for which the GI50 in assay [1], in assay [2], in assay [3], in [4], in assay [5] and in assay [6] was > 100 µM (inactive) each time. Also, the GI50 in assay [7], in [8], in assay [9], in assay [10], in [11] and in assay [12] was > 100 µM (inactive) throughout. Besides, the GI50 in [13], in assay [14], in assay [16], in assay [17], in assay [18] and in assay [19] was > 100 µM (inactive) in each case.

Consider `COc1cccc2c1-c1ccccc1[C@H](Nc1ccccc1)[C@@]2(C)O`, for which the GI50 is 4.11 µM (inactive) in assay [1]; 3.04 µM (inactive) in assay [2]; 3.1 µM (inactive) in [3]; 4.1 µM (inactive) in assay [4]; 11.2 µM (inactive) in assay [5]; 1.71 µM (inactive) in assay [6]. Moreover, the GI50 in assay [7] is 9.12 µM (inactive); in assay [8], 4.84 µM (inactive); in assay [10], 5.71 µM (inactive); in assay [11] it was 10.4 µM (inactive); in assay [12], 3.78 µM (inactive); in assay [13], 3.85 µM (inactive). Also, the GI50 in assay [14] was 3.31 µM (inactive); in [15], 4.13 µM (inactive); in [16], 5.3 µM (inactive); in assay [17] it was 7.93 µM (inactive); in assay [18] it was 6.21 µM (inactive); in [19] it was 8.95 µM (inactive).

In the case of `CC(C)(C)CNCCO`, the GI50 in assay [1], in assay [2], in [3], in assay [4], in [5] and in assay [6] was > 100 µM (inactive) in each case. For the same molecule, the GI50 in assay [7], in assay [8], in [9], in [10], in assay [11] and in [12] was > 100 µM (inactive) each time. The GI50 in [13], in [15], in assay [16], in assay [17], in assay [18] and in assay [19] was > 100 µM (inactive) each time.

`CC(=O)N(O)[C@@H]1CC[C@H](n2cnc3c(N)ncnc32)C1`: the GI50 in assay [1], in [2], in assay [3], in assay [4], in assay [5] and in assay [6] was > 100 µM (inactive) each time. Also, the GI50 in [7], in [8], in [9], in [10], in assay [11] and in assay [13] was > 100 µM (inactive) in each case. For the same molecule, the GI50 in [14], in assay [15], in assay [16], in assay [17], in assay [18] and in assay [19] was > 100 µM (inactive) throughout.

For `O=S(=O)(NNc1ccccc1)c1ccccc1`, the GI50 in assay [1] is 13.2 µM (inactive); in [2] it was 1.66 µM (inactive); in assay [3], 8.99 µM (inactive); in [4] it was 1.28 µM (inactive); in assay [5] it was 19.1 µM (inactive); in assay [6], 12.2 µM (inactive). For the same molecule, the GI50 in assay [7] was 0.481 µM (active); in assay [8], 16.2 µM (inactive); in assay [9] it was 3.71 µM (inactive); in assay [10], 38.5 µM (inactive); in assay [11], 28.5 µM (inactive); in assay [12], 11.5 µM (inactive). In addition, the GI50 is 12.4 µM (inactive) in assay [13]; 4.23 µM (inactive) in [14]; 0.646 µM (active) in [15]; 13.2 µM (inactive) in assay [16]; 8.15 µM (inactive) in assay [18]; 81.5 µM (inactive) in [19].

As for `CC(=O)Nc1cc(/C=C\C(=O)N2CC(CCl)c3c2cc(N)c2ccccc32)n(C)n1` (stereo not drawn), the GI50 in [1] is 0.00149 µM (active); in assay [2] it was 0.0167 µM (active); in assay [3] it was 0.0235 µM (active); in assay [4], 0.00129 µM (active); in assay [5], 0.0194 µM (active); in assay [6], 0.0185 µM (active). For the same molecule, the GI50 is 0.00423 µM (active) in assay [7]; 0.0031 µM (active) in assay [8]; 0.0179 µM (active) in assay [9]; 0.0057 µM (active) in [10]; 0.00168 µM (active) in [11]; 0.00347 µM (active) in [13]. In addition, the GI50 in assay [14] was 0.00417 µM (active); in assay [15] it was 0.0135 µM (active); in [16], < 0.001 µM (active); in [17] it was 0.012 µM (active); in [18], 0.0233 µM (active); in [19] it was 0.00373 µM (active).

In the case of `Cc1nc2ccc(Cl)cc2c(-n2ccnc2)c1CCn1ccnc1`, the GI50 in assay [1] was 23.8 µM (inactive); in assay [3], 18 µM (inactive); in [4] it was 63.1 µM (inactive); in assay [5], 15.9 µM (inactive); in assay [6], 25.5 µM (inactive); in [7], 16.3 µM (inactive). Also, the GI50 is 40.5 µM (inactive) in assay [8]; 30.2 µM (inactive) in [10]; 1.75 µM (inactive) in [11]; 17.3 µM (inactive) in assay [12]; 33.3 µM (inactive) in [13]; 23.2 µM (inactive) in assay [14]. Also, the GI50 in assay [15] was 34.2 µM (inactive); in [16], 31.9 µM (inactive); in assay [17] it was 31.1 µM (inactive); in assay [18], 22.1 µM (inactive); in assay [19], 21.5 µM (inactive).

With `CN(CC(=O)O)c1ncc2c(n1)-c1ccccc1SC2`, the GI50 in assay [1], in assay [2], in assay [3], in assay [4], in [5] and in [6] was > 100 µM (inactive) in each case. For the same molecule, the GI50 in assay [7], in assay [8], in assay [9], in assay [10], in assay [11] and in assay [12] was > 100 µM (inactive) in each case. The GI50 in assay [15] is > 100 µM (inactive); in [16] it was > 100 µM (inactive); in [17] it was 50.1 µM (inactive); in assay [18] it was > 100 µM (inactive); in assay [19] it was > 100 µM (inactive).
